Measured values as given in patent US10280170B2, “Substituted 4,5,6,7-tetrahydro-pyrazolo[1,5-a]pyrazine derivatives and 5,6,7,8-tetrahydro-4H-pyrazolo[1,5-a][1,4]diazepine derivatives as Ros1 inhibitors” (Janssen Pharmaceutica NV, priority 2014, dated 2019).
Where two headings read alike, the source gives them in different places.

Assays:
[1] = tested on: Ba/F3 cells containing Ros1 wild-type protein + IL-3; assay: Ba/F3-Ros1 cell proliferation counter-screen, wild-type protein in the presence of 10 ng/ml murine IL-3; format: cell-based; settings: Mus musculus, BaF3, 24 h, read-out: BaF3-ROS1 + IL3 pIC50 (converted)
Procedure: (§1) This assay was carried out with Ba/F3 cells containing three different versions of Ros1: the wild-type protein, protein with a mutation at the gatekeeper residue (L2026M), and protein with a mutation identified in a tumor from a patient that became resistant to crizotinib (Xalkori®) treatment (G2032R). Compounds were solubilized in 100% DMSO (dimethyl sulfoxide) and sprayed into polystyrene, tissue culture treated 384-well plates. A 50 μl volume of cell culture medium (phenol red free RPMI-1640, 10% FBS (fetal bovine serum), 2 mM L-Glutamine) containing 20000 Ba/F3-Ros1 cells was added to each well and the plates were placed in an incubator at 37° C. and 5% CO2. After 24 hours, 10 μl of Alamar Blue solution (0.5 mM K3Fe(CN)6, 0.5 mM K4Fe(CN)6, 0.15 mM Resazurin and 100 mM Phosphate Buffer) was added to the wells, incubated for 4 hours at 37° C. and 5% CO2 before RFU's (Relative Fluorescence Units) (ex. 540 nm., em. 590 nm.) were measured in a fluorescence plate reader.
As a counter-screen the same experiment was performed for the wild-type protein in the presence of 10 ng/ml murine IL-3.

[2] = biological target: T1, Ba/F3 cells containing Ros1 wild-type protein (Homo sapiens, UniProt P08922, cells depend on it, form not given); assay: Ba/F3-Ros1 cell proliferation assay, wild-type Ros1; format: cell-based, murine; settings: without IL-3
T1 construct: The background only speaks of 'a number of different unrelated proteins' and names SLC34A2-ROS1 for HCC78 cells
T1 sequence (P08922 whole entry, stated change not applied): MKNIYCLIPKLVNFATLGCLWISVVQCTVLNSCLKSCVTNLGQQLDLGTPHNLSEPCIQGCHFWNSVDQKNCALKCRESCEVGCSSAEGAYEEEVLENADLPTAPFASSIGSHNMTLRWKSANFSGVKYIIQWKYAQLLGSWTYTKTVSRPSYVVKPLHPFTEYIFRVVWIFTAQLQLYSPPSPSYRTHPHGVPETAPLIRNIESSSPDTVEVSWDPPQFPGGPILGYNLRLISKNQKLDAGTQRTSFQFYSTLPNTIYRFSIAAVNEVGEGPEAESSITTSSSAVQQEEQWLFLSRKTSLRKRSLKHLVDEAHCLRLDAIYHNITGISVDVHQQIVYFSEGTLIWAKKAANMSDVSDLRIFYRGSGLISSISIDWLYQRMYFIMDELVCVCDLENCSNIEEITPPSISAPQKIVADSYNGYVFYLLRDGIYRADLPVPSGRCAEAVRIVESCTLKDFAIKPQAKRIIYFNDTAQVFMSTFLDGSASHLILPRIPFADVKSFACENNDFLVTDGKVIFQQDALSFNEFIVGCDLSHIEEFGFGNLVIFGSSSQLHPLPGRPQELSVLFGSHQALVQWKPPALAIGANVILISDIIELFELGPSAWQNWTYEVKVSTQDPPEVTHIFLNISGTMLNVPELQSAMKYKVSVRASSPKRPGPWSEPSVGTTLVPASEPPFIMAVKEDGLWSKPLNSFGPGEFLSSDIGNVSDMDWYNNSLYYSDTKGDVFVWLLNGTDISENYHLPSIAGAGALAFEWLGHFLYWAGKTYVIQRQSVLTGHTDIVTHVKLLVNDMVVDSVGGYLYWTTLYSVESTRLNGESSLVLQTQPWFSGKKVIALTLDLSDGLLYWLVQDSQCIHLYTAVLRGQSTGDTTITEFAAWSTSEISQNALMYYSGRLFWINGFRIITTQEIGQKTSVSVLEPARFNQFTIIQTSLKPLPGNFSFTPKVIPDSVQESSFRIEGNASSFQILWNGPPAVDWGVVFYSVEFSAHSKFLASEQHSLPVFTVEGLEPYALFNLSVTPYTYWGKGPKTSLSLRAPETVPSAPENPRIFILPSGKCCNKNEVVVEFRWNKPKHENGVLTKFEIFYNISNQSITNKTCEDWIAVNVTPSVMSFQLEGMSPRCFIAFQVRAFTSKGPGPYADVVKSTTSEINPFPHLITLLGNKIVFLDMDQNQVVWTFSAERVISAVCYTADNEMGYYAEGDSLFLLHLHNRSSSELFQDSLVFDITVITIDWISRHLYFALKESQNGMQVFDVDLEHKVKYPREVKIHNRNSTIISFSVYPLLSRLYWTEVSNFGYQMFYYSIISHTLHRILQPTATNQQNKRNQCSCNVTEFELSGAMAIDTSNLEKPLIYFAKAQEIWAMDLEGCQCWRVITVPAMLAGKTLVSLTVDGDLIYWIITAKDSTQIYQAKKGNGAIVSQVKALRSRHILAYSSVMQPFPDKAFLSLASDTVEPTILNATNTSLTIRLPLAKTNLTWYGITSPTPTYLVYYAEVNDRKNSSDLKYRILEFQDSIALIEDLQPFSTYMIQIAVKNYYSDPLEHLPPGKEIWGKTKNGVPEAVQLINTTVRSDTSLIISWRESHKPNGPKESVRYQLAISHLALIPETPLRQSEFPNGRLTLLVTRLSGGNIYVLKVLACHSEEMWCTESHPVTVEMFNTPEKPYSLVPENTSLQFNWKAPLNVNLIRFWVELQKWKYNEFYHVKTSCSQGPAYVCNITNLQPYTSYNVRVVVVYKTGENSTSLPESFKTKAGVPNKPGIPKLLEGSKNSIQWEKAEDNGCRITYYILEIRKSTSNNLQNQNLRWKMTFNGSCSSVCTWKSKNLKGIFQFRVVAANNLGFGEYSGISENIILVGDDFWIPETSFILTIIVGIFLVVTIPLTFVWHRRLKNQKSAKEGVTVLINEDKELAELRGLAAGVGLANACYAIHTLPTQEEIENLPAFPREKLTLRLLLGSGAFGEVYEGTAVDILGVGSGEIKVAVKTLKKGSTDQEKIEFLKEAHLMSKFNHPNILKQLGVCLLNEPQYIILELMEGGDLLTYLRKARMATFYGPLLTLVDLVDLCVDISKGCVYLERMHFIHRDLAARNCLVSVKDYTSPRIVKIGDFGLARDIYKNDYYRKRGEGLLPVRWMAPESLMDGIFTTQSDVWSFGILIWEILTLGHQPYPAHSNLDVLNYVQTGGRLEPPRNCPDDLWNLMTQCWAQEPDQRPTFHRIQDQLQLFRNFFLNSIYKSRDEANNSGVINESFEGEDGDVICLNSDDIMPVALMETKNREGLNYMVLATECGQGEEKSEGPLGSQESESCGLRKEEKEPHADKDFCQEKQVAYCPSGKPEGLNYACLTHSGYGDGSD
Procedure: (§2) Ba/F3-Ros1 Cell Proliferation Assay
as §1

Ros1 enzyme = biological target: T2, Ros1 enzyme (Homo sapiens, UniProt P08922); assay: Ros1 enzymatic assay; format: biochemical; settings: Ros1 enzymatic assay; for IC50: read-out: ROS1 pIC50 (converted)
T2 construct: 0.5 μg/ml Ros1 enzyme
T2 sequence (P08922 28-2347): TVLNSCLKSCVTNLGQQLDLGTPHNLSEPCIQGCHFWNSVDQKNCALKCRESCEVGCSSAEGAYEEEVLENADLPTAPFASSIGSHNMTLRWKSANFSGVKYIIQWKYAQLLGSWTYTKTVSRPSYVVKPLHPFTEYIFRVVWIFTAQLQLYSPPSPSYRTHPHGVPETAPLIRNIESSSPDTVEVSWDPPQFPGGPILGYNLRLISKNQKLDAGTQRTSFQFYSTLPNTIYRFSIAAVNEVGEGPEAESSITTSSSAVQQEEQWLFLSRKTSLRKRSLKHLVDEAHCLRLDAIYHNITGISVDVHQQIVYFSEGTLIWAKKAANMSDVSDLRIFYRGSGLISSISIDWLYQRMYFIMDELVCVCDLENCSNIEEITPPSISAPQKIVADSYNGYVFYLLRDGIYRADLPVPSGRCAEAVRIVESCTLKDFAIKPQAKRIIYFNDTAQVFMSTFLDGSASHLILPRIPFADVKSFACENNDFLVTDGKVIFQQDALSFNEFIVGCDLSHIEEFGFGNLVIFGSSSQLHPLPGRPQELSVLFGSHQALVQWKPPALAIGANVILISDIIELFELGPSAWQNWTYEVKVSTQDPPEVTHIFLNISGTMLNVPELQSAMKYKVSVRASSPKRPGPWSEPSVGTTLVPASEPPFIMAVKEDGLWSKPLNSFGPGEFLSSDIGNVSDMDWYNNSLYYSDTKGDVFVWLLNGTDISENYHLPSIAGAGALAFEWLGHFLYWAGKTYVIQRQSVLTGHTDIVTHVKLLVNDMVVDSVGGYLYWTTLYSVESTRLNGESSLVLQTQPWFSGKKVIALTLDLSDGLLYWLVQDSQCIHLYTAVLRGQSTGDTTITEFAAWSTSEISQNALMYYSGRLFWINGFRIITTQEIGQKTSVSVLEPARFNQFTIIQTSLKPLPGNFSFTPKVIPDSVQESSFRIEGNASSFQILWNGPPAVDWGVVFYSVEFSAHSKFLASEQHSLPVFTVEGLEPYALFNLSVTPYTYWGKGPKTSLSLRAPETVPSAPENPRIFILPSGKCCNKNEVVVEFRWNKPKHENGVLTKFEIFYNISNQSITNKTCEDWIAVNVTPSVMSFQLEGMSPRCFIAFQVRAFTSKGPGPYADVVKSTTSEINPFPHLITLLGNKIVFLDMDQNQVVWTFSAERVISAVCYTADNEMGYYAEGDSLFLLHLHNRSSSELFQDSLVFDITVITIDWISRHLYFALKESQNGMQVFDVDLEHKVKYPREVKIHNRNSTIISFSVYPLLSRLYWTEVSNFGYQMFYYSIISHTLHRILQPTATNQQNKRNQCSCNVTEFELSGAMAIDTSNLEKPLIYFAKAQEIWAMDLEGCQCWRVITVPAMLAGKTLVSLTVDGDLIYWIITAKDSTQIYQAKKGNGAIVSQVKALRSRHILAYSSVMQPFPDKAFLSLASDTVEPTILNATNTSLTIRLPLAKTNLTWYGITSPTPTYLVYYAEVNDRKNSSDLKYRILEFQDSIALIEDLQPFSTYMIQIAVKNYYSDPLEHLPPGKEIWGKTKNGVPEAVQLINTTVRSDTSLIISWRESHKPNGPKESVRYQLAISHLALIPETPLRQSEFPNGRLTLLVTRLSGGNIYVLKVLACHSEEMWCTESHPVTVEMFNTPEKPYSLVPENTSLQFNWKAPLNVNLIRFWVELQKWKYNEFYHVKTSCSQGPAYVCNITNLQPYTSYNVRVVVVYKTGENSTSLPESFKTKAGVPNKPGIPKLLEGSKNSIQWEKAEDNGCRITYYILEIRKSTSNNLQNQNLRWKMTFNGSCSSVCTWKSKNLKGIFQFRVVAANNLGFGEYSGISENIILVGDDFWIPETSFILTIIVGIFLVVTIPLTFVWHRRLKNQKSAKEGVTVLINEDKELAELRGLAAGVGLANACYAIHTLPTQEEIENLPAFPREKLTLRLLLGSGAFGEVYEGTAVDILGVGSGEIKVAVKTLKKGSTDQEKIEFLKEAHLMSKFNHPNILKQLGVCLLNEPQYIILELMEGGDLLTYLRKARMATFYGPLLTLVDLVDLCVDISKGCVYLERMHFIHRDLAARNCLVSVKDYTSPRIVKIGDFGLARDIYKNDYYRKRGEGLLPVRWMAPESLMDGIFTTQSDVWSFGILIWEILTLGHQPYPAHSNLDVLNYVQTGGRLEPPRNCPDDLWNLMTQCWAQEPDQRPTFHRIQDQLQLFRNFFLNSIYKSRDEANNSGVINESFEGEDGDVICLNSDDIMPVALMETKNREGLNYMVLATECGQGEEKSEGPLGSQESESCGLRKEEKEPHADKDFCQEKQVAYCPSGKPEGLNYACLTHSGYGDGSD
Procedure: Compounds were spotted onto white 384-well Proxiplate plus plates (Perkin Elmer) to which 5 μl of enzyme mix (0.5 μg/ml Ros1 enzyme, 50 mM Tris-HCl pH7.5, 1 mM EGTA, 10 mM MgCl2, 0.01% Tween-20) and 5 μl of substrate mix (6 μg/ml IRS-Tide [American Peptide Company], 20 μM ATP, 13.33 μCi/ml ATP (adenosine 5′-triphosphate) P^33, 50 mM Tris-HCl pH7.5, 1 mM EGTA (ethylene glycol-bis(2-aminoethylether)-N,N,N′,N′-tetraacetic acid), 10 mM MgCl2, 0.01% Tween-20) were added. After incubation for 120 minutes at room temperature, 10 μl of stop reaction buffer (5 mM EDTA, 50 μM ATP, 0.1% BSA (bovine serum albumin), 0.1% Triton X-100, 50 mM Tris-HCl pH7.5, 1 mM EGTA, 10 mM MgCl2, 0.01% Tween-20) containing 2 mg/ml streptavidin coupled polystyrene imaging beads (Amersham Biosciences) was added and incubated for 15 minutes at room temperature. Plates were centrifuged for 3 minutes at 1500 rpm and signals detected in a LEADseeker imaging system (GE).

[3] = biological target: Ba/F3 cells containing Ros1 with a mutation at the gatekeeper residue (L2026M) (Homo sapiens, UniProt P08922, L2026M, cells depend on it, form not given); assay: Ba/F3-Ros1 cell proliferation assay, L2026M gatekeeper mutant; format: cell-based, murine; settings: without IL-3
Sequence of Ba/F3 cells containing Ros1 with a mutation at the gatekeeper residue (L2026M) (P08922 whole entry L2026M, form open): as the sequence (P08922 whole entry, stated change not applied) above, with L2026M counted along it
Procedure: as §2, §1

[4] = counter-screen, wild-type, 10 ng/ml murine IL-3

SMILES | CC50 [1, 4] | BaF3-ROS1-IL3 pIC50 [2] | melting point | IC50 (Ros1 enzyme) | CC50 [1] | ROS1 pIC50 (Ros1 enzyme) | Ba/F3 Ros1 L2026M (-IL-3) pIC50 [3]
COC(=O)c1ccc(COc2ccc(-c3c(-c4ccncc4)nn4c3C(=O)NCC4)cc2)cc1 [Compound 9a] | > 10 µM | <5 | 254 °C | 2510 nM | – | – | –
CC(C)c1ccc(COc2ccc(-c3c(-c4ccnc(N)n4)nn4c3C(=O)NCC4)cc2)cc1 [Compound 13] | – | 7.5 | – | 20 nM | > 10 µM | – | –
CC(C)c1ccc(COc2cc(F)c(-c3c(-c4ccncc4)nn4c3C(=O)NCC4)c(F)c2)cc1 [Compound 17] | – | 6.8 | 235 °C | 501 nM | > 10 µM | – | –
COc1cc(OCc2ccc(C(C)C)cc2)ccc1-c1c(-c2ccncc2)nn2c1C(=O)NCC2 [Compound 34] | – | 6.6 | 276 °C | 316 nM | > 10 µM | – | –
CC(C)Oc1cc(-c2c(-c3ccncc3)nn3c2C(=O)NCC3)ccc1OCc1ccc(C(C)C)cc1 [Compound 37] | – | 5.4 | 206 °C | 2510 nM | > 10 µM | – | –
CC(C)c1ccc(COc2ccc(-c3c(-c4ccncc4)nn4c3C(=O)N(CCC#N)CC4)cc2)cc1 [Compound 57] | – | 7.7 | 158 °C | 25.1 nM | > 10 µM | – | –
CC(C)c1ccc(COc2ccc(-c3c(-c4ccncc4)nn4c3C(=O)N(CCN)CC4)cc2)cc1 [Compound 59a] | – | 6.6 | – | – | – | 7.2 | –
CC(C)c1ccc(COc2ccc(-c3c(-c4ccncc4)nn4c3C(=O)N(CC(=O)O)CC4)cc2)cc1 [Compound 66] | – | 5.1 | – | 251 nM | > 10 µM | – | –
COc1cc(COc2ccc(-c3c(-c4ccncc4)nn4c3C(=O)NCC4)cc2)ccc1C(C)C [Compound 80] | – | 6.9 | 232 °C | 126 nM | > 10 µM | – | –
CC(C)c1ccc(COc2ccc(-c3c(-c4ccncc4)nn4c3C(=O)N(C)CC4)cc2)cc1CCO [Compound 82] | – | 7.6 | – | 10 nM | > 10 µM | – | 7.3
COCCOc1cc(COc2ccc(-c3c(-c4ccncc4)nn4c3C(=O)NCC4)cc2)ccc1C [Compound 104] | – | 6.1 | 190 °C | 1260 nM | > 10 µM | – | –
CCC(C)c1ccc(COc2ccc(-c3c(-c4ccncc4)nn4c3C(=O)NCC4)cc2)cc1 (centres unmarked) [Compound 106] | – | 7.5 | 229 °C | 25.1 nM | > 10 µM | – | –
CC(C)Cc1ccc(COc2ccc(-c3c(-c4ccncc4)nn4c3C(=O)NCC4)cc2)cc1 [Compound 108] | – | 7.0 | 233 °C | 126 nM | > 10 µM | – | –
CC(C)c1cccc(COc2ccc(-c3c(-c4ccncc4)nn4c3C(=O)NCC4)cc2)c1 [Compound 110] | – | 6.9 | 268 °C | 126 nM | > 10 µM | – | –
COc1cccc(COc2ccc(-c3c(-c4ccncc4)nn4c3C(=O)NCC4)cc2)c1 [Compound 113] | > 10 µM | 6.0 | 242 °C | 794 nM | – | – | –
CC(C)Oc1ccc(COc2ccc(-c3c(-c4ccncc4)nn4c3C(=O)NCC4)cc2)cc1 [Compound 114] | – | 6.4 | 252 °C | 501 nM | > 10 µM | – | –
O=C1NCCn2nc(-c3ccncc3)c(-c3ccc(OCc4ccc(OC(F)F)cc4)cc3)c21 [Compound 118] | – | 7.1 | 250 °C | 158 nM | > 10 µM | – | –
O=C1NCCn2nc(-c3ccncc3)c(-c3ccc(OCc4cccc(C(F)(F)F)c4)cc3)c21 [Compound 120] | – | 6.6 | 293 °C | 251 nM | > 10 µM | – | –
